Data as given in US10072003B2, “Tetrahydronaphthyridine derivatives as mGluR2-negative allosteric modulators, compositions, and their use” (Merck Sharp & Dohme Corp., priority 2014, dated 2018).

target: recombinant human mGluR2 (Homo sapiens (Human), UniProt Q14416); test: FLIPR Ca2+ mobilization antagonist assay in CHO dhfr- cells expressing human mGluR2 and Gα16; assay type: cell-based; conditions: antagonist response after addition of 2,500 nM glutamate, Fluo-4 AM, FLIPR384
How it was run: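 CHO dhfr- cells stably co-expressing human mGluR2 and Gα16, Fluo-4 AM loaded, preincubated with compound, then challenged with 2,500 nM glutamate; Ca2+ response read by FLIPR. Maximum calcium response vs concentration fitted to four-parameter logistic for IC50.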

Chain of recombinant human mGluR2 (Q14416 19-872): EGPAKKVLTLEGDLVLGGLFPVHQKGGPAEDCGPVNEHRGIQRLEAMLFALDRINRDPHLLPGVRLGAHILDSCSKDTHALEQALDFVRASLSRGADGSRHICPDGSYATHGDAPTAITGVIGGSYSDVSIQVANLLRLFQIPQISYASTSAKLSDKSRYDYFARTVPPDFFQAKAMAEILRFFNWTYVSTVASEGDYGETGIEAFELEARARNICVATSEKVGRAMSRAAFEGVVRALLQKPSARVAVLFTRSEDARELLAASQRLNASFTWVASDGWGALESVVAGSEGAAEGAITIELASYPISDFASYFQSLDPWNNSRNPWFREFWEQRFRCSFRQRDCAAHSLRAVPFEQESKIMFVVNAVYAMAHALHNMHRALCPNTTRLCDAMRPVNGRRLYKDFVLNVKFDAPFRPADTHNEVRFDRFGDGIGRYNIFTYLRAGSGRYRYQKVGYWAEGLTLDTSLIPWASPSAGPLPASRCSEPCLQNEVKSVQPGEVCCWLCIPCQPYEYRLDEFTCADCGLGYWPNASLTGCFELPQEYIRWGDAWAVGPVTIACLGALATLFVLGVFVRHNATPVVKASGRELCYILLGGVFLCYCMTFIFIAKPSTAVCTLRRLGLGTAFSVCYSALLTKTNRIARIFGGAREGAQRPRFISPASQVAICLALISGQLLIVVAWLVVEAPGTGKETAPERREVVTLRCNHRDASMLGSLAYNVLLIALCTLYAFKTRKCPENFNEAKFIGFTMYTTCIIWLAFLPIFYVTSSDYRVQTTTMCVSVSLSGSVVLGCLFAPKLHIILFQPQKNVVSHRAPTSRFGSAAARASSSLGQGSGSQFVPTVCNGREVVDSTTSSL

Row | SMILES | IC50 [nM]
1 | Cn1cncc1CN1CCc2c(-c3ccc(Cl)cc3F)cc(C(N)=O)nc2C1 [Example 1-16, 4-(4-chloro-2-fluorophenyl)-7-[(1-methyl-1H-imidazol-5-yl)methyl]-5,6,7,8-tetrahydro-1,7-naphthyridine-2-carboxamide] | 14.1
2 | CC(c1cnnn1C)N1CCc2c(-c3ccc(F)cc3F)cc(C(N)=O)nc2C1 (single isomer, unassigned) [Example 7-1, (S) or (R)-4-(2,4-difluorophenyl)-7-(1-(1-methyl-1H-1,2,3-triazol-5-yl)ethyl)-5,6,7,8-tetrahydro-1,7-naphthyridine-2-carboxamide] | 37.4
3 | NC(=O)c1cc(N2CCCC(F)C2)c2c(n1)CN(Cc1ccnc(C(F)(F)F)c1)CC2 (single isomer, unassigned) [Example 5-6B, (R) or (S)-4-(3-fluoropiperidin-1-yl)-7-((2-(trifluoromethyl)pyridin-4-yl)methyl)-5,6,7,8-tetrahydro-1,7-naphthyridine-2-carboxamide] | 17.3
4 | Cc1nonc1CN1CCc2c(-c3ccc(F)cc3F)cc(C(N)=O)nc2C1 [Example 2-7, 4-(2,4-difluorophenyl)-7-[(4-methyl-1,2,5-oxadiazol-3-yl)methyl]-5,6,7,8-tetrahydro-1,7-naphthyridine-2-carboxamide] | 7.6
5 | NC(=O)c1cc(N2CCCC3(CC3)C2)c2c(n1)CN(Cc1ccnc(C(F)(F)F)c1)CC2 [Example 5-4, 4-(5-azaspiro[2.5]oct-5-yl)-7-{[2-(trifluoromethyl)pyridin-4-yl]methyl}-5,6,7,8-tetrahydro-1,7-naphthyridine-2-carboxamide] | 29
6 | NC(=O)c1cc(-c2cnn(C(F)F)c2)c2c(n1)CN(Cc1ccnc(C3CC3)c1)CC2 [Example 2-9, 7-[(2-cyclopropylpyridin-4-yl)methyl]-4-[1-(difluoromethyl)-1H-pyrazol-4-yl]-5,6,7,8-tetrahydro-1,7-naphthyridine-2-carboxamide] | 10.8
7 | CN1CCN(c2cc(C(N)=O)nc3c2CCN(Cc2ccnc(C(F)(F)F)c2)C3)CC1C(F)(F)F (single isomer, unassigned) [Example 5-9, (S) or (R)-4-(4-methyl-3-(trifluoromethyl)piperazin-1-yl-7-((2-(trifluoromethyl)pyridin-4-yl)methyl)-5,6,7,8-tetrahydro-1,7-naphthyridine-2-carboxamide] | 92.7
8 | COc1cc(C(N2CCc3c(-c4cnn(C)c4)cc(C(N)=O)nc3C2)C(F)(F)F)ccn1 (racemic) [Example 3-2B, (S) and (R)-4-(1-methyl-1H-pyrazol-4-yl)-7-(2,2,2-trifluoro-1-(2-methoxypyridin-4-yl)ethyl)-5,6,7,8-tetrahydro-1,7-naphthyridine-2-carboxamide] | 11.4
9 | Cc1noc(CN2CCc3c(-c4ccc(Cl)cc4F)cc(C(N)=O)nc3C2)n1 [Example 9-5, 4-(4-chloro-2-fluorophenyl)-7-[(3-methyl-1,2,4-oxadiazol-5-yl)methyl]-5,6,7,8-tetrahydro-1,7-naphthyridine-2-carboxamide] | 12.7
10 | NC(=O)c1cc(-c2ccc(F)cc2)c2c(n1)CN(C[C@@H]1CCO[C@H](C3CC3)C1)CC2 [Example 1-2A, 7-(((2S,4R)-2-cyclopropyltetrahydro-2H-pyran-4-yl)methyl)-4-(4-fluorophenyl)-5,6,7,8-tetrahydro-1,7-naphthyridine-2-carboxamide] | 129
11 | CC1c2nc(C(N)=O)cc(-c3ccc(F)cc3F)c2CCN1Cc1ccnn1C(C)C (single isomer, unassigned) [Example 1-15B, (R) or (S)-4-(2,4-difluorophenyl)-8-methyl-7-{[1-(1-methylethyl)-1H-pyrazol-5-yl]methyl}-5,6,7,8-tetrahydro-1,7-naphthyridine-2-carboxamide] | 5.3
12 | NC(=O)c1cccc(CN2CCc3c(-c4ccc(F)cc4)cc(C(N)=O)nc3C2)c1 [Example 2-1, 7-(3-carbamoylbenzyl)-4-(4-fluorophenyl)-5,6,7,8-tetrahydro-1,7-naphthyridine-2-carboxamide] | 52.7
13 | CC(C)(C)n1nncc1CN1CCc2c(-c3c(F)cc(Cl)cc3F)cc(C(N)=O)nc2C1 [Example 1-17, 7-[(1-tert-butyl-1H-1,2,3-triazol-5-yl)methyl]-4-(4-chloro-2,6-difluorophenyl)-5,6,7,8-tetrahydro-1,7-naphthyridine-2-carboxamide] | 7.4
14 | Cc1csc(-c2cc(C(N)=O)nc3c2CCN(Cc2ccnc(C(F)(F)F)c2)C3)n1 [Example 6-2, 4-(4-methyl-1,3-thiazol-2-yl)-7-{[2-(trifluoromethyl)pyridin-4-yl]methyl}-5,6,7,8-tetrahydro-1,7-naphthyridine-2-carboxamide] | 1150
15 | COc1cnn(-c2cc(C(N)=O)nc3c2CCN(Cc2ccnc(C(F)(F)F)c2)C3)c1 [Example 5-8, 4-(4-methoxy-1H-pyrazol-1-yl)-7-{[2-(trifluoromethyl)pyridin-4-yl]methyl}-5,6,7,8-tetrahydro-1,7-naphthyridine-2-carboxamide] | 88.7
16 | C[C@@H]1CN(c2cc(C(N)=O)nc3c2CCN(Cc2ccnc(C(F)(F)F)c2)C3)CCO1 [Example 5-2, (R)-4-(2-methylmorpholino)-7-((2-(trifluoromethyl)pyridin-4-yl)methyl)-5,6,7,8-tetrahydro-1,7-naphthyridine-2-carboxamide] | 79.1

Row | SMILES | IC50 [nM]
17 | CC1c2nc(C(N)=O)cc(N3CCCCC3)c2CCN1Cc1ccnn1C(C)C (single isomer, unassigned) [Example 1-19, (S) or (R)-8-methyl-7-{[1-(1-methylethyl)-1H-pyrazol-5-yl]methyl}-4-piperidin-1-yl-5,6,7,8-tetrahydro-1,7-naphthyridine-2-carboxamide] | 13.2
18 | CC(c1ccnn1C)N1CCc2c(-c3ccc(F)cc3F)cc(C(N)=O)nc2C1 (single isomer, unassigned) [Example 7-4, (S) or (R)-4-(2,4-difluorophenyl)-7-[(1S)-1-(1-methyl-1H-pyrazol-5-yl)ethyl]-5,6,7,8-tetrahydro-1,7-naphthyridine-2-carboxamide] | 20.1
19 | Cn1nncc1CN1CCc2c(-c3c(F)cc(F)cc3F)cc(C(N)=O)nc2C1 [Example 2-21, 7-[(1-methyl-1H-1,2,3-triazol-5-yl)methyl]-4-(2,4,6-trifluorophenyl)-5,6,7,8-tetrahydro-1,7-naphthyridine-2-carboxamide] | 33.7
20 | NC(=O)c1cc(-c2ccc(Cl)cc2F)c2c(n1)CN(Cc1ncon1)CC2 [Example 9-1, 7-((1,2,4-oxadiazol-3-yl)methyl)-4-(4-chloro-2-fluorophenyl)-5,6,7,8-tetrahydro-1,7-naphthyridine-2-carboxamide] | 27.7
21 | NC(=O)c1cc(-c2ccc(F)cc2F)c2c(n1)CN(CC(O)c1ccccc1)CC2 (racemic) [Example 8-1A, (S) and (R)-4-(2,4-difluorophenyl)-7-(2-hydroxy-2-phenylethyl)-5,6,7,8-tetrahydro-1,7-naphthyridine-2-carboxamide] | 18.5
22 | CC(c1ccnc(C(F)(F)F)c1)N1CCc2c(-c3cnn(C(F)F)c3)cc(C(N)=O)nc2C1 (single isomer, unassigned) [Example 7-3A, (S) or (R)-4-[1-(difluoromethyl)-1H-pyrazol-4-yl]-7-{(1R)-1-[2-(trifluoromethyl)pyridin-4-yl]ethyl}-5,6,7,8-tetrahydro-1,7-naphthyridine-2-carboxamide] | 29.3
23 | Cn1cc(CN2CCc3c(-c4ccc(Cl)cc4F)cc(C(N)=O)nc3C2)cn1 [Example 10-4, 4-(4-chloro-2-fluorophenyl)-7-[(1-methyl-1H-pyrazol-4-yl)methyl]-5,6,7,8-tetrahydro-1,7-naphthyridine-2-carboxamide] | 14.6
24 | COc1cc(CN2CCc3c(-c4ccc(F)cc4Cl)cc(C(N)=O)nc3C2)ccn1 [Example 13-4, 4-(2-chloro-4-fluorophenyl)-7-[(2-methoxypyridin-4-yl)methyl]-5,6,7,8-tetrahydro-1,7-naphthyridine-2-carboxamide] | 5.7
25 | NC(=O)c1cc(-c2ccc(F)cc2F)c2c(n1)CN(C(CO)c1ccccc1)CC2 (racemic) [Example 8-2A, (S) and (R)-4-(2,4-difluorophenyl)-7-(2-hydroxy-1-phenylethyl)-5,6,7,8-tetrahydro-1,7-naphthyridine-2-carboxamide] | 9.9
26 | CC1(C)CC(F)(CN2CCc3c(-c4ccc(F)cc4F)cc(C(N)=O)nc3C2)CO1 (single isomer, unassigned) [Example 14-1A] | 17.4
27 | COc1ncc(CN2CCc3c(-c4ccc(Cl)cc4F)cc(C(N)=O)nc3C2)cn1 [Example 10-2, 4-(4-chloro-2-fluorophenyl)-7-[(2-methoxypyrimidin-5-yl)methyl]-5,6,7,8-tetrahydro-1,7-naphthyridine-2-carboxamide] | 7.4
28 | CS(=O)(=O)c1cccc(CN2CCc3c(-c4ccc(F)cc4)cc(C(N)=O)nc3C2)c1 [Example 2-6, 4-(4-fluorophenyl)-7-[3-(methylsulfonyl)benzyl]-5,6,7,8-tetrahydro-1,7-naphthyridine-2-carboxamide] | 23
29 | Cn1nnnc1CN1CCc2c(-c3ccc(F)cc3F)cc(C(N)=O)nc2C1 [Example 2-18, 4-(2,4-difluorophenyl)-7-[(1-methyl-1H-tetrazol-5-yl)methyl]-5,6,7,8-tetrahydro-1,7-naphthyridine-2-carboxamide] | 49.5
30 | Cc1ncc(-c2cc(C(N)=O)nc3c2CCN(Cc2ccnn2C)C3)s1 [Example 6-4, 7-[(1-methyl-1H-pyrazol-5-yl)methyl]-4-(2-methyl-1,3-thiazol-5-yl)-5,6,7,8-tetrahydro-1,7-naphthyridine-2-carboxamide] | 119
31 | CC1(C)CCC(CN2CCc3c(-c4ccc(Cl)cc4F)cc(C(N)=O)nc3C2)CO1 (single isomer, unassigned) [Example 1-21, (S) or (R)-4-(4-chloro-2-fluorophenyl)-7-[(6,6-dimethyltetrahydro-2H-pyran-3-yl)methyl]-5,6,7,8-tetrahydro-1,7-naphthyridine-2-carboxamide] | 9.3
